Results from US6737383B1, “Herbicidal oxadiazolidines” (priority 1999, dated 2004).

Key:
[1] = test system: pigweed; assay: Test B pre/postemergence pigweed; assay type: in vivo, Amaranthus retroflexus
How it was run: (§1)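 Test chemicals in a non-phytotoxic solvent mixture with surfactant were sprayed preemergence onto planted seeds and postemergence onto plants 2 to 18 cm tall (1- to 4-leaf stage). After twelve to sixteen days in a greenhouse, injury was visually rated against untreated controls from 0 (no effect) to 10 (complete control).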

[2] = test system: wheat; assay: Test B pre/postemergence wheat; assay type: in vivo, Triticum aestivum
How it was run: as §1

[3] = test system: corn; assay: Test B pre/postemergence corn; assay type: in vivo, Zea mays
How it was run: as §1

[4] = test system: morningglory; assay: Test B pre/postemergence morningglory; assay type: in vivo, Ipomoea hederacea
How it was run: as §1

[5] = test system: smallflower flatsedge; assay: Test B flood test smallflower flatsedge; assay type: in vivo, Cyperus difformis
How it was run: (§2)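 Flood test on plants grown to the 2-leaf stage; treated plants kept in greenhouse twelve to sixteen days, then visually rated against controls on a 0 (no effect) to 10 (complete control) scale.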

[6] = test system: cocklebur; assay: Test B pre/postemergence cocklebur; assay type: in vivo, Xanthium strumarium
How it was run: as §1

[7] = test system: wild oat; assay: Test B pre/postemergence wild oat; assay type: in vivo, Avena fatua
How it was run: as §1

[8] = test system: rape; assay: Test B pre/postemergence rape; assay type: in vivo, Brassica napus
How it was run: as §1

[9] = test system: purple nutsedge; assay: Test B pre/postemergence purple nutsedge; assay type: in vivo, Cyperus rotundus
How it was run: as §1

[10] = test system: velvetleaf; assay: Test B pre/postemergence velvetleaf; assay type: in vivo, Abutilon theophrasti
How it was run: as §1

[11] = test system: blackgrass; assay: Test B pre/postemergence blackgrass; assay type: in vivo, Alopecurus myosuroides
How it was run: as §1

[12] = test system: sugar beet; assay: Test B pre/postemergence sugar beet; assay type: in vivo, Beta vulgaris
How it was run: as §1

[13] = test system: crabgrass; assay: Test B pre/postemergence crabgrass; assay type: in vivo, Digitaria sanguinalis
How it was run: as §1

[14] = test system: surinam grass; assay: Test B pre/postemergence surinam grass; assay type: in vivo, Brachiaria decumbens
How it was run: as §1

[15] = test system: duck salad; assay: Test B flood test duck salad; assay type: in vivo, Heteranthera limosa
How it was run: as §2

[16] = test system: bedstraw; assay: Test B pre/postemergence bedstraw; assay type: in vivo, Galium aparine
How it was run: as §1

[17] = Preemergence, Rate 62 g/ha, scale of 0 to 10 where 0 is no effect and 10 is complete control
[18] = Preemergence, Rate 125 g/ha, 0 is no effect, 10 is complete control
[19] = Preemergence, Rate 250 g/ha, scale 0 to 10, 0 is no effect, 10 is complete control
[20] = Preemergence, Rate 500 g/ha, scale of 0 to 10 where 0 is no effect and 10 is complete control
[21] = Rate 62 g/ha, Postemergence, scale of 0 to 10 where 0 is no effect and 10 is complete control
[22] = Rate 125 g/ha, Postemergence, scale 0 to 10
[23] = Rate 500 g/ha, Postemergence, scale 0 to 10
[24] = Rate 31 g/ha, Pre-emergence section (flood test species), scale 0 to 10
[25] = Rate 62 g/ha, headed Pre-emergence (flood test species), scale 0 to 10 (0 no effect, 10 complete control)
[26] = Rate 125 g/ha, Pre-emergence, flood test species, scale 0 to 10 where 0 is no effect and 10 is complete control
[27] = Rate 250 g/ha, Pre-emergence, flood-test species, scale 0 to 10, 0 is no effect, 10 is complete control

Cc1nc(C)c(-n2c(=O)on(C(=O)N(c3ccc(Cl)cc3)C(C)C)c2=O)s1 [Compound 196]
0: Redroot pigweed plant response rating [1, 17] | Redroot pigweed plant response rating (0 to 10 scale) [1, 18] | Redroot pigweed plant response rating [1, 19] | Plant response rating, Redroot pigweed [1, 20] | Redroot pigweed plant response rating [1, 21] | Redroot pigweed plant response rating [1, 22] | Plant response rating (0 to 10; 0 is no effect, 10 is complete control), Redroot pigweed ([1]; Rate 250 g/ha, Postemergence) | Redroot pigweed plant response rating [1, 23] | Wheat plant response rating [2, 17] | Wheat plant response rating [2, 19] | Plant response rating, Wheat [2, 20] | Wheat plant response rating [2, 21] | Wheat plant response rating [2, 22] | Plant response rating (0 to 10; 0 is no effect, 10 is complete control), Wheat ([2]; Rate 250 g/ha, Postemergence) | Corn plant response rating [3, 17] | Corn plant response rating (0 to 10 scale) [3, 18] | Corn plant response rating [3, 19] | Plant response rating, Corn [3, 20] | Corn plant response rating [3, 21] | Corn plant response rating [3, 22] | Plant response rating (0 to 10; 0 is no effect, 10 is complete control), Corn ([3]; Rate 250 g/ha, Postemergence) | Corn plant response rating [3, 23] | Morningglory plant response rating [4, 17] | Morningglory plant response rating (0 to 10 scale) [4, 18] | Morningglory plant response rating [4, 19] | Plant response rating, Morningglory [4, 20] | Morningglory plant response rating [4, 21] | Morningglory plant response rating [4, 22] | Plant response rating (0 to 10; 0 is no effect, 10 is complete control), Morningglory ([4]; Rate 250 g/ha, Postemergence) | Morningglory plant response rating [4, 23] | S. Flatsedge plant response rating [5, 24] | S. Flatsedge plant response rating [5, 25] | S. Flatsedge plant response rating [5, 26] | S. Flatsedge plant response rating [5, 27] | S. Flatsedge plant response rating ([5]; Rate 500 g/ha, Pre-emergence, flood test species, scale 0 to 10 (0 no effect, 10 complete control)) | Cocklebur plant response rating [6, 17] | Cocklebur plant response rating (0 to 10 scale) [6, 18] | Cocklebur plant response rating [6, 19] | Plant response rating, Cocklebur [6, 20] | Cocklebur plant response rating [6, 21] | Cocklebur plant response rating [6, 22] | Plant response rating (0 to 10; 0 is no effect, 10 is complete control), Cocklebur ([6]; Rate 250 g/ha, Postemergence) | Cocklebur plant response rating [6, 23] | Wild oats plant response rating [7, 17] | Wild oats plant response rating [7, 19] | Plant response rating, Wild oats [7, 20] | Wild oats plant response rating [7, 21] | Wild oats plant response rating [7, 22] | Plant response rating (0 to 10; 0 is no effect, 10 is complete control), Wild oats ([7]; Rate 250 g/ha, Postemergence) | Rape plant response rating [8, 17] | Rape plant response rating (0 to 10 scale) [8, 18] | Rape plant response rating [8, 19] | Plant response rating, Rape [8, 20] | Rape plant response rating [8, 21] | Rape plant response rating [8, 22] | Plant response rating (0 to 10; 0 is no effect, 10 is complete control), Rape ([8]; Rate 250 g/ha, Postemergence) | Rape plant response rating [8, 23] | Nutsedge plant response rating [9, 17] | Nutsedge plant response rating (0 to 10 scale) [9, 18] | Nutsedge plant response rating [9, 19] | Plant response rating, Nutsedge [9, 20] | Nutsedge plant response rating [9, 21] | Nutsedge plant response rating [9, 22] | Plant response rating (0 to 10; 0 is no effect, 10 is complete control), Nutsedge ([9]; Rate 250 g/ha, Postemergence) | Nutsedge plant response rating [9, 23] | Velvetleaf plant response rating [10, 17] | Velvetleaf plant response rating [10, 19] | Plant response rating, Velvetleaf [10, 20] | Velvetleaf plant response rating [10, 21] | Velvetleaf plant response rating [10, 22] | Plant response rating (0 to 10; 0 is no effect, 10 is complete control), Velvetleaf ([10]; Rate 250 g/ha, Postemergence) | Blackgrass plant response rating [11, 17] | Blackgrass plant response rating (0 to 10 scale) [11, 18] | Blackgrass plant response rating [11, 19] | Plant response rating, Blackgrass [11, 20] | Blackgrass plant response rating [11, 21] | Blackgrass plant response rating [11, 22] | Plant response rating (0 to 10; 0 is no effect, 10 is complete control), Blackgrass ([11]; Rate 250 g/ha, Postemergence) | Blackgrass plant response rating [11, 23] | Sugarbeets plant response rating [12, 17] | Sugarbeets plant response rating (0 to 10 scale) [12, 18] | Sugarbeets plant response rating [12, 19] | Plant response rating, Sugarbeets [12, 20] | Sugarbeets plant response rating [12, 21] | Sugarbeets plant response rating [12, 22] | Plant response rating (0 to 10; 0 is no effect, 10 is complete control), Sugarbeets ([12]; Rate 250 g/ha, Postemergence) | Sugarbeets plant response rating [12, 23] | Crabgrass plant response rating [13, 17] | Crabgrass plant response rating (0 to 10 scale) [13, 18] | Crabgrass plant response rating [13, 19] | Plant response rating, Crabgrass [13, 20] | Crabgrass plant response rating [13, 21] | Crabgrass plant response rating [13, 22] | Plant response rating (0 to 10; 0 is no effect, 10 is complete control), Crabgrass ([13]; Rate 250 g/ha, Postemergence) | Crabgrass plant response rating [13, 23] | B. signalgrass plant response rating [14, 17] | B. signalgrass plant response rating (0 to 10 scale) [14, 18] | B. signalgrass plant response rating [14, 19] | Plant response rating, B. signalgrass [14, 20] | B. signalgrass plant response rating [14, 21] | B. signalgrass plant response rating ([14]; Rate 125 g/ha, Postemergence, scale 0 (no effect) to 10 (complete control)) | Plant response rating, B. signalgrass ([14]; Rate 250 g/ha, Postemergence, scale 0 to 10, 0 is no effect, 10 is complete control) | B. signalgrass plant response rating ([14]; Rate 500 g/ha, Postemergence, scale 0 to 10, 0 no effect, 10 complete control) | Ducksalad plant response rating [15, 24] | Ducksalad plant response rating [15, 25] | Ducksalad plant response rating [15, 26] | Ducksalad plant response rating [15, 27] | Plant response rating, Ducksalad ([15]; Rate 500 g/ha, headed Pre-emergence (flood test species), scale 0 to 10 (0 no effect, 10 complete control)) | Bedstraw plant response rating [16, 17] | Bedstraw plant response rating (0 to 10 scale) [16, 18] | Bedstraw plant response rating [16, 19] | Plant response rating, Bedstraw [16, 20] | Bedstraw plant response rating [16, 21] | Bedstraw plant response rating [16, 22] | Plant response rating (0 to 10; 0 is no effect, 10 is complete control), Bedstraw ([16]; Rate 250 g/ha, Postemergence) | Bedstraw plant response rating [16, 23]
